Reference: ChEMBL document CHEMBL1201862, “PubChem BioAssay data set” (2004)
Active and inactive are the calls of the source.

How the values were obtained:
Type in all cases: functional
[1] = biological target: Ribosomal protein S6 kinase alpha-3 (Homo sapiens, UniProt P51812);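 further: measured within a kinome-wide profiling panel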
[2] = biological target: Tyrosine-protein kinase JAK2 (Homo sapiens, UniProt O60674);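 further: JAK2 tested as one member of a kinase panel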
[3] = biological target: 5'-AMP-activated protein kinase catalytic subunit alpha-1 (Homo sapiens, UniProt Q13131)
[4] = biological target: T1, Tyrosine-protein kinase receptor TYRO3 (Homo sapiens, UniProt Q06418);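 further: TYRO3 value obtained as one member of a kinome-wide profiling panel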
T1 sequence (Q06418 whole entry): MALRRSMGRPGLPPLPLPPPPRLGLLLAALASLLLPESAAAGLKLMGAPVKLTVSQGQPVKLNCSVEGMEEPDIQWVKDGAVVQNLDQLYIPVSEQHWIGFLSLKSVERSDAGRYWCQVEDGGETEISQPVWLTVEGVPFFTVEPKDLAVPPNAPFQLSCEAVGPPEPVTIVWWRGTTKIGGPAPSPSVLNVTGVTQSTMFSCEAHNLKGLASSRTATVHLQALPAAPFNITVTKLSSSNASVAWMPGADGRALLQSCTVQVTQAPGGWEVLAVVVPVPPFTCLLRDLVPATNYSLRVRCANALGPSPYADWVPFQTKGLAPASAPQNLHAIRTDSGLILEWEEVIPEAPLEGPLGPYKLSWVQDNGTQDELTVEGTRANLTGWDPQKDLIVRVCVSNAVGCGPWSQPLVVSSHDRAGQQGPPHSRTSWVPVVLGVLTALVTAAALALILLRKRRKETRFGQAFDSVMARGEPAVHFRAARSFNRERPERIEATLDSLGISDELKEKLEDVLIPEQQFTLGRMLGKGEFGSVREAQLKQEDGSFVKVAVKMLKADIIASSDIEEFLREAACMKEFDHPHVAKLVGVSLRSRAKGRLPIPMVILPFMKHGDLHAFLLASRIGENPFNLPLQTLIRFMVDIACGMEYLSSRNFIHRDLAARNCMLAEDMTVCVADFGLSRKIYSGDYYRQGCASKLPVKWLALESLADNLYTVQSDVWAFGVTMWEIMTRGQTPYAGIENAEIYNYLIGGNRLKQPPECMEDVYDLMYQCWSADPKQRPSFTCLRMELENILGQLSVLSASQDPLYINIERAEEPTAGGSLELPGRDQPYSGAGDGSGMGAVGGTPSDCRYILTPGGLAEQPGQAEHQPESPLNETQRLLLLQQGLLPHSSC

[5] = biological target: Tyrosine-protein kinase Lck (Homo sapiens, UniProt P06239);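 further: lck was assayed as one member of a kinase panel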
[6] = biological target: Death-associated protein kinase 3 (Homo sapiens, UniProt O43293);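 further: measured as one member of a kinome-wide profiling panel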
[7] = biological target: Serine/threonine-protein kinase pim-1 (Homo sapiens, UniProt P11309)
Aurora kinase A = Aurora kinase A (Homo sapiens, UniProt O14965);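 further: value from the Navigating the Kinome kinase panel profiling, panel entry STK6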
Aurora kinase A, sequence (O14965 whole entry): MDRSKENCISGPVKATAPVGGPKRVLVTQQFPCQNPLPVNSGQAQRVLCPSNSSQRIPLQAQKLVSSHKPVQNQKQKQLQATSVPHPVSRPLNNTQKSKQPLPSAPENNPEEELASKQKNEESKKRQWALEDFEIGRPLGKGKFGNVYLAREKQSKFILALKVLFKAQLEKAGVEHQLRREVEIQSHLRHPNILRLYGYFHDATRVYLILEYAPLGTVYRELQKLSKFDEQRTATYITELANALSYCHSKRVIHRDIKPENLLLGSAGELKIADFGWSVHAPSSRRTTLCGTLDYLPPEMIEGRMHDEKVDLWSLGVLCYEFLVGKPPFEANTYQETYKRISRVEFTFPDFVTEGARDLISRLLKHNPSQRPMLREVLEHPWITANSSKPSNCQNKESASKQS

[8] = biological target: Serine/threonine-protein kinase PAK 4 (Homo sapiens, UniProt O96013);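 further: value obtained within a kinome profiling panel in which PAK4 was one of the panel members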
[9] = biological target: Fibroblast growth factor receptor 1 (Homo sapiens, UniProt P11362)
[10] = biological target: Tyrosine-protein kinase JAK3 (Homo sapiens, UniProt P52333)
Tyrosine-protein kinase JAK3, sequence (P52333 whole entry): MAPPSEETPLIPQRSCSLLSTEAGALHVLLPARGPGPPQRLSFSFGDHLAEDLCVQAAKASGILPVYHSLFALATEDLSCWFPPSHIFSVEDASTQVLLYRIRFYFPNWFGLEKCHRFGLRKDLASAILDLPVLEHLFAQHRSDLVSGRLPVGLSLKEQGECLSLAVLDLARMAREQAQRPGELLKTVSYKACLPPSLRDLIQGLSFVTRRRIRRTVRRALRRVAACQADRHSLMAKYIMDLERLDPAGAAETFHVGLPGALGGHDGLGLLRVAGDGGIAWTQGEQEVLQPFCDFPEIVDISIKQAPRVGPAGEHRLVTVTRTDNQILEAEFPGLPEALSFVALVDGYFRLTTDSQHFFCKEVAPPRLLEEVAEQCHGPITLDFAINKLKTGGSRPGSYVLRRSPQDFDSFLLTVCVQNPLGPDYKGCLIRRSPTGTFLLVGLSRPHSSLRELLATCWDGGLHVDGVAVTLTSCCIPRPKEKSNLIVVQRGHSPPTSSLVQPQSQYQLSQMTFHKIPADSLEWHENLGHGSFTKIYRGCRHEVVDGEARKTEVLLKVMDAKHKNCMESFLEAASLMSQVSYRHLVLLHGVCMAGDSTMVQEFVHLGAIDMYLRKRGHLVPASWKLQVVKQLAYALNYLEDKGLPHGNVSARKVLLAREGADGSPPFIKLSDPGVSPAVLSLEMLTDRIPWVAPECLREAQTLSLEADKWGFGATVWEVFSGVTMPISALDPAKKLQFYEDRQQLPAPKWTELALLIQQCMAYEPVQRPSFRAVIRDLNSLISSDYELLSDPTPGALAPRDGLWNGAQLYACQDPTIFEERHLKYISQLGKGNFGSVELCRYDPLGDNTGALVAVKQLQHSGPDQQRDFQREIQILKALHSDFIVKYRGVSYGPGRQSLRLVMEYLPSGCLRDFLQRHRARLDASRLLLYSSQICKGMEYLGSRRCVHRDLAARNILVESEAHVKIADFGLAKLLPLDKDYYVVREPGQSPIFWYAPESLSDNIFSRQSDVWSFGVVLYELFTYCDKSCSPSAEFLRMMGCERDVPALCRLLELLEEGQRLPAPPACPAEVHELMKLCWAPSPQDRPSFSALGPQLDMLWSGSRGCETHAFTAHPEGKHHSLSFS

[11] = biological target: Serine/threonine-protein kinase TAO1 (Homo sapiens, UniProt Q7L7X3)
[12] = biological target: High affinity nerve growth factor receptor (Homo sapiens, UniProt P04629);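 further: NTRK1 tested as one member of a kinome-wide profiling panel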
[13] = biological target: Glycogen synthase kinase-3 alpha (Homo sapiens, UniProt P49840);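 further: GSK3A result taken from a broad kinome-wide kinase panel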
[14] = biological target: Receptor-type tyrosine-protein kinase FLT3 (Homo sapiens, UniProt P36888);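 further: FLT3 was tested as one member of a kinome-wide kinase panel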
Receptor-type tyrosine-protein kinase FLT3, sequence (P36888 whole entry): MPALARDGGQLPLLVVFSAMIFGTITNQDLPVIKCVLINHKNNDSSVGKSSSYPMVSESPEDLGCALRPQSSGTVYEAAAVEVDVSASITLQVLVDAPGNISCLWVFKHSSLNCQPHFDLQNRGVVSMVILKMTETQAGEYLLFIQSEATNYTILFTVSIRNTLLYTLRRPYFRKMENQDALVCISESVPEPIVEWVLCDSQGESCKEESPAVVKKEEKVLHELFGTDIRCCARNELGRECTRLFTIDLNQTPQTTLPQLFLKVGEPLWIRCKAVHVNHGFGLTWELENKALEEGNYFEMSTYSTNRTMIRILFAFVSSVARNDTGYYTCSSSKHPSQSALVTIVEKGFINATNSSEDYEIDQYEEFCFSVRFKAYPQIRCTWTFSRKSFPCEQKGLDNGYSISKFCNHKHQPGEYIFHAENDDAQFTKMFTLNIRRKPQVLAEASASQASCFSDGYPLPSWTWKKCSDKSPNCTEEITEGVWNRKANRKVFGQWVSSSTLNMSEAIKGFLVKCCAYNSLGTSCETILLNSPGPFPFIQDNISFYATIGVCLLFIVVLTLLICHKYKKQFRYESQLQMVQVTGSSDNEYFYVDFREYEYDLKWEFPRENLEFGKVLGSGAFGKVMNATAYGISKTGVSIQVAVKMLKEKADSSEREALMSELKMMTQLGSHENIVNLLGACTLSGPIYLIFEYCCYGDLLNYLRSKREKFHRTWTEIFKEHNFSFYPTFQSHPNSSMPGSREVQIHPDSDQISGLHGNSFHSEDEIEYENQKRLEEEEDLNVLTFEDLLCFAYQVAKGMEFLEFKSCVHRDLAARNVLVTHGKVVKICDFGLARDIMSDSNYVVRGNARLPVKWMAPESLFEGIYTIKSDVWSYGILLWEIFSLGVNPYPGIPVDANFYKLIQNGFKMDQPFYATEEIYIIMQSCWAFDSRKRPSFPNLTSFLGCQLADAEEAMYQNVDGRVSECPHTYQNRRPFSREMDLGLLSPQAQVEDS

[15] = biological target: T2, Serine/threonine-protein kinase Chk1 (Homo sapiens, UniProt O14757);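 further: measured as one member of a kinome-wide kinase profiling panel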
T2 sequence (O14757 whole entry): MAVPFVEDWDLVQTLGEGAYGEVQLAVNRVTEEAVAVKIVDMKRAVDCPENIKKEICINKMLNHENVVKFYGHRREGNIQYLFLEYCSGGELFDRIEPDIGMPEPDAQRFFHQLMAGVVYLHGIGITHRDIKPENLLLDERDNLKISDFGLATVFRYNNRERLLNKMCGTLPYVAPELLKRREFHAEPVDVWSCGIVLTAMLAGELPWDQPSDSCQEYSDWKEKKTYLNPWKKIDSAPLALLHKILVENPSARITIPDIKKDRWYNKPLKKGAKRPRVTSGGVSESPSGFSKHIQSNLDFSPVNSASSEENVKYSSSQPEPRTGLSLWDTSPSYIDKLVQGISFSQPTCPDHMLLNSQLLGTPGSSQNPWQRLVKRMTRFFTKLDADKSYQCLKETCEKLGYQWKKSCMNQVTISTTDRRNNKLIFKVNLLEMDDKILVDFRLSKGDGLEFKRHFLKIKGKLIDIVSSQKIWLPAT

[16] = biological target: Vascular endothelial growth factor receptor 2 (Homo sapiens, UniProt P35968)
[17] = biological target: Cyclin-dependent kinase 5 (Homo sapiens, UniProt Q00535);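 further: CDK5 measured as one member of a kinase profiling panel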
Cyclin-dependent kinase 5, sequence (Q00535 whole entry): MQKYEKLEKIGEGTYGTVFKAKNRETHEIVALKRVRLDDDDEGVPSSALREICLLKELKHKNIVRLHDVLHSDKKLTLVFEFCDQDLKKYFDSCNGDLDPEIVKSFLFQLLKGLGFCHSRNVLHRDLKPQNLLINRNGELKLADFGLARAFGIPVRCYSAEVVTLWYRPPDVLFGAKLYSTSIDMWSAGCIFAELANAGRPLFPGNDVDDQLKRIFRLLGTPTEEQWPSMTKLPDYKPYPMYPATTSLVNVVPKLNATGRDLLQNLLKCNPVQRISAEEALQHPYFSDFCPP

[18] = biological target: Insulin-like growth factor 1 receptor (Homo sapiens, UniProt P08069); experiment: Navigating the Kinome. Panel member name: IGF1R
Aurora kinase B = Aurora kinase B (Homo sapiens, UniProt Q96GD4)
Aurora kinase B, sequence (Q96GD4 whole entry): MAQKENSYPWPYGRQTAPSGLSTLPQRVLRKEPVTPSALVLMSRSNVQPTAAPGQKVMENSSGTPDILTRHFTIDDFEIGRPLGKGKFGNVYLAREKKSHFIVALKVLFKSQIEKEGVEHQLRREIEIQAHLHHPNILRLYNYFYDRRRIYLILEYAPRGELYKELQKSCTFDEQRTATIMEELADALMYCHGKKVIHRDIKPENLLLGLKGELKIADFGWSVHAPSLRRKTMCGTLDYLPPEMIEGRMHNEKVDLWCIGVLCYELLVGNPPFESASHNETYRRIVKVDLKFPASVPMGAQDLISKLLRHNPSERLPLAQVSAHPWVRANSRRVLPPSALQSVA

[19] = biological target: Tyrosine-protein kinase Fyn (Homo sapiens, UniProt P06241)
[20] = biological target: Cyclin-dependent kinase 8 (Homo sapiens, UniProt P49336); experiment: Navigating the Kinome. Panel member name: CDK8
[21] = biological target: Cyclin-dependent kinase 7 (Homo sapiens, UniProt P50613);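 further: value comes from a kinome-wide kinase profiling panel in which CDK7 is one member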
Cyclin-dependent kinase 7, sequence (P50613 whole entry): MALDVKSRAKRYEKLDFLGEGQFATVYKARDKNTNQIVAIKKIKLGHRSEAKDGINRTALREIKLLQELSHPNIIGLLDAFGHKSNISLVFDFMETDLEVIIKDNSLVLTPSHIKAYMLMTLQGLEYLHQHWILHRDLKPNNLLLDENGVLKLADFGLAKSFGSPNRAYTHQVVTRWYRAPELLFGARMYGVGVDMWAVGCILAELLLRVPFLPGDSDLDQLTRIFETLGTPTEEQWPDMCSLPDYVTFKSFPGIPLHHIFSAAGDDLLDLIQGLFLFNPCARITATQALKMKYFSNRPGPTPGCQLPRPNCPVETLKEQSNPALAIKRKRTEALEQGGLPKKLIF

[22] = biological target: Vascular endothelial growth factor receptor 1 (Homo sapiens, UniProt P17948);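 further: measured within a kinome-wide profiling panel, FLT1 as the panel member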
[23] = biological target: Glycogen synthase kinase-3 beta (Homo sapiens, UniProt P49841);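 further: value comes from a broad kinome profiling panel, with GSK3B as the panel member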
[24] = biological target: Cyclin-dependent kinase 9 (Homo sapiens, UniProt P50750);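 further: value from the CDK9 entry of a kinome-spanning kinase panel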
Cyclin-dependent kinase 9, sequence (P50750 whole entry): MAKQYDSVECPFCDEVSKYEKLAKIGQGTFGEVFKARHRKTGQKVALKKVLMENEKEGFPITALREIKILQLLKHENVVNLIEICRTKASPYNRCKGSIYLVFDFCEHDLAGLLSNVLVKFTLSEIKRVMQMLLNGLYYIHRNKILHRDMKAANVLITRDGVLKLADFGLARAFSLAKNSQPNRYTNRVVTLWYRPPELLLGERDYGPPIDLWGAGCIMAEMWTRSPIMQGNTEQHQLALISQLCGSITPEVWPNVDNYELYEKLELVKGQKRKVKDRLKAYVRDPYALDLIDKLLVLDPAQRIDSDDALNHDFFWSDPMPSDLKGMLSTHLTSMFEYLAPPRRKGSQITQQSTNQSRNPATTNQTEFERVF

[25] = biological target: BDNF/NT-3 growth factors receptor (Homo sapiens, UniProt Q16620);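 further: NTRK2 measured as one member of a broad kinome-wide kinase profiling panel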
[26] = biological target: Macrophage colony-stimulating factor 1 receptor (Homo sapiens, UniProt P07333);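 further: value comes from the Navigating the Kinome screening panel, CSF1R member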

Tyrosine-protein kinase JAK2, sequence (O60674 whole entry): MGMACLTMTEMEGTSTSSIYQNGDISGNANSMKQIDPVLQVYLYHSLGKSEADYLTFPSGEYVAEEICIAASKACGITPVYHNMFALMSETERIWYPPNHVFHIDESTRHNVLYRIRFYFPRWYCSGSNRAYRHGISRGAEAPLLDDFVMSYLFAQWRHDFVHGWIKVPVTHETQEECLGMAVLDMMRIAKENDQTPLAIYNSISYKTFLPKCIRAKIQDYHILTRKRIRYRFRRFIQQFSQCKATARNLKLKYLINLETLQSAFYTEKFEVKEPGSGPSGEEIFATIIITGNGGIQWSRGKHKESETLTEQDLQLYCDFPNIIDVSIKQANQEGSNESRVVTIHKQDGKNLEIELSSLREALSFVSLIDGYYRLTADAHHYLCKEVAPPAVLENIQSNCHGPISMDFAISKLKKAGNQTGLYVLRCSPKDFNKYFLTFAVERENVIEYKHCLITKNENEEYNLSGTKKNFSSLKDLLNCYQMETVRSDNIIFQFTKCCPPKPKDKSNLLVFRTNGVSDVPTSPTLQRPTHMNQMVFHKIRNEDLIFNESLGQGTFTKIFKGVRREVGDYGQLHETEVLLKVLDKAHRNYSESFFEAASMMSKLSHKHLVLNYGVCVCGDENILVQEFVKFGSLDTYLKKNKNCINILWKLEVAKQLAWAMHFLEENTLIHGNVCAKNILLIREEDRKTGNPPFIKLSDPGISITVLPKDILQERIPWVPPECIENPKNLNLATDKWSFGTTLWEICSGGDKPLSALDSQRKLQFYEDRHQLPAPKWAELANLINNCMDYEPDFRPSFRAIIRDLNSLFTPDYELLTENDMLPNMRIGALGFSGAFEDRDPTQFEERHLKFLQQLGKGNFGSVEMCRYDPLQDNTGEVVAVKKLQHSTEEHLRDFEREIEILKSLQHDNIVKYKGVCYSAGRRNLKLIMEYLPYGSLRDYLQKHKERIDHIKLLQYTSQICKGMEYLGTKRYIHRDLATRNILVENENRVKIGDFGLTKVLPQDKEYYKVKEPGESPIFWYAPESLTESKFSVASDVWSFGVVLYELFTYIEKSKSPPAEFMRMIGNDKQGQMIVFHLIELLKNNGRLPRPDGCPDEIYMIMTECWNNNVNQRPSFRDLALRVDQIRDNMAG

Ki [1] | Ki [2] | Ki [3] | Ki [4] | Ki [5] | Ki [7] | Ki (Aurora kinase A) | Ki [8] | Ki [9] | Ki [10] | Ki [11] | Ki [12] | Ki [13] | Ki [14] | Ki [15] | Ki [16] | Ki [17] | Ki [18] | Ki (Aurora kinase B) | Compound | Ki [6] | also measured
> 3980 nM (inactive) | > 2510 nM (inactive) | > 3160 nM (inactive) | > 3160 nM (inactive) | > 6310 nM (inactive) | > 6310 nM (inactive) | > 1580 nM (inactive) | > 5010 nM (inactive) | > 3980 nM (inactive) | > 5010 nM (inactive) | > 6310 nM (inactive) | > 3160 nM (inactive) | 3160 nM (active) | > 3160 nM (inactive) | > 3160 nM (inactive) | > 2510 nM (inactive) | > 3160 nM (inactive) | > 2510 nM (inactive) | > 3980 nM (inactive) | [2H]C([2H])([2H])Oc1cccc(C(C)NC(=O)c2sc(-c3ccncc3)nc2C)c1 (stereo unspecified) | > 5010 nM (inactive) | Ki [19]: > 6310 nM (inactive); Ki [20]: > 3980 nM (inactive); Ki [21]: > 3980 nM (inactive); Ki [22]: > 3980 nM (inactive); Ki [23]: 2000 nM (active); Ki [24]: > 1580 nM (inactive); Ki [25]: > 3980 nM (inactive); Ki [26]: > 2510 nM (inactive)
15.8 nM (active) | > 1580 nM (inactive) | 31.6 nM (active) | > 2000 nM (inactive) | > 2510 nM (inactive) | 6.31 nM (active) | 1000 nM (active) | 79.4 nM (active) | > 5010 nM (inactive) | 1260 nM (active) | 631 nM (active) | > 2510 nM (inactive) | 100 nM (active) | 100 nM (active) | 7940 nM (active) | > 7940 nM (inactive) | 12.6 nM (active) | > 2000 nM (inactive) | 251 nM (active) | Cc1n[nH]c2ccc(-c3cncc(OCC(N)Cc4ccc(Cl)c(Cl)c4)c3)cc12 (stereo unspecified) | 126 nM (active) | Ki [19]: > 794 nM (inactive); Ki [20]: 12.6 nM (active); Ki [21]: 20 nM (active); Ki [22]: > 398 nM (inactive); Ki [23]: 31.6 nM (active); Ki [24]: 200 nM (active); Ki [25]: > 5010 nM (inactive); Ki [26]: > 2510 nM (inactive)
